The source of these data is BindingDB's records for doi:10.1021/jm0303352 (National Center For Genetic Engineering and Biotechnology …, 2004).

Each structure is given as a SMILES string.

Test [1] can be described thus: In vitro antimalarial activity relative to trimethoprim against Plasmodium falciparum TM4/8.2 wtDHFR.
Test [2] is described as follows: In vitro antimalarial activity against Plasmodium falciparum K1CB1 double DHFR mutant (C59R/S108N).
A short description of test [3]: In vitro antimalarial activity against Plasmodium falciparum Csl-2 triple DHFR mutant (C59R/S108N/I164L) relative to trimethoprim.
Test [4] can be described thus: In vitro antimalarial activity against Plasmodium falciparum Csl-2 triple DHFR mutant (C59R/S108N/I164L)/.
Test [5] is described as follows: In vitro antimalarial activity against Plasmodium falciparum TM4/8.2 wtDHFR.
Test [6] can be described thus: In vitro antimalarial activity against Plasmodium falciparum K1CB1 double DHFR mutation (C59R/S108N) relative to trimethoprim.
A short description of test [7]: In vitro antimalarial activity against Plasmodium falciparum Vl/S with quadruple DHFR mutant (N51I/C59R/S108N/I164L).
Test [8] can be described thus: In vitro antimalarial activity relative to trimethoprim against Plasmodium falciparum Vl/S with quadruple DHFR mutant (N51I/C59R/S108N/I164L).

The term IC50 denotes the midpoint of a concentration-inhibition curve. A lower IC50 goes with inhibition by little substance. Regarding `COc1cc(Cc2cnc(N)nc2N)ccc1OCc1cc(OC)c(OC)c(OC)c1` [5-[3-Methoxy-4-(3,4,5-trimethoxy-benzyloxy)-benzyl]-pyrimidine-2,4-diamine], the values for the IC50 ratio in test [1], in test [3] and in test [6] were 0.05, 0.26 and 0.13, respectively. Besides, the IC50 is 27.8 µM in test [2], 30.6 µM in test [4], 0.31 µM in test [5] and 26.1 µM in test [7].
Turning to `COc1cc(Cc2c(C)nc(N)nc2N)ccc1OCc1ccccc1` [5-(4-(benzyloxy)-3-methoxybenzyl)-6-methylpyrimidine-2,4-diamine], the figures for the IC50 ratio in test [1], in test [3] and in test [6] were 1.03, 0.02 and 0.18, respectively. In addition, the IC50 is 25.2 µM in test [2], 2.85 µM in test [4], 6.84 µM in test [5] and 4.82 µM in test [7].
Take `COc1ccc(Cc2cnc(N)nc2N)cc1OCc1ccccc1` [5-(3-Benzyloxy-4-methoxy-benzyl)-pyrimidine-2,4-diamine]: the IC50 ratio amounted to 2.62 in test [1], 0.05 in test [3], 0.03 in test [6] and 0.25 in test [8]. Moreover, the IC50 is 3.83 µM in test [2], 5.73 µM in test [4], 17.5 µM in test [5] and > 50 µM in test [7].
Regarding `CCc1nc(N)nc(N)c1Cc1ccc(OCc2ccccc2)c(OC)c1` [5-(4-Benzyloxy-3-methoxy-benzyl)-6-ethyl-pyrimidine-2,4-diamine], the values for the IC50 ratio in test [1], in test [3] and in test [6] were 0.76, 0.05 and 0.12, respectively. The IC50 in test [2] was found to be 16.3 µM; in test [4], 5.37 µM; in test [5], 5.06 µM; in test [7], 11.3 µM.
